The test system of experiment [1] is osteoclast formation from BMMs. The experiment can be described thus: TRAP staining of osteoclast formation from BMMs. The experiment is classed as cell-based, mouse.
The subject of experiment [2] is osteoblast differentiation. As to the kind of experiment: osteoblast differentiation. The experiment is classed as cell-based, mouse. Here is the method:
For osteoblast differentiation analyses in vitro, we isolated bone marrow mesenchymal stem cells (MSCs) from femurs and tibias of 8-week-old WT and Kiss1^−/−, Gpr54^−/− and Dusp18^−/− mice using a 1 ml syringe with a 26 G needle. MSCs were seeded into 12-well plates at a concentration of 1 × 10^5 cells per well. Cells were incubated with 50 µg/mL ascorbic acid, 10 mmol/L beta-glycerophosphate and 10 nmol/L dexamethasone. The medium was replaced every 2 days during the incubation period. Alkaline phosphatase (ALP) activity was assayed using the assay mixtures containing 0.1 M 2-amino-2-methyl-1-propanol, 1 mM MgCl2, 8 mM p-nitrophenylphosphate disodium (Sigma). For determination of mineralization, cells were fixed with 95% ethanol and stained with AgNO3 by the von Kossa method.

In another experiment the test system is OVX mice. As to the kind of experiment: OVX-induced bone loss model (and sham-operated mice). The format is in vivo, mouse. As to conditions: in vivo, OVX-induced bone loss model. An excerpt:
Fig. 7 Kp-10 ameliorated OVX-induced bone loss. a, c Representative micro-CT images of femoral trabecular bone (a) and cortical bone (c). Female C57 mice treated with vehicle (Sham) or 50 nmol/kg (DSS)*6-Kp-10, ovariectomized mice (OVX) treated with vehicle or 50nmol/kg (DSS)*6-Kp-10 twice one week by intraperitoneal injection (n = 6 per group). Scale bar, 500 µm. b, d Parameter analysis of femurs from the mice above. BMD bone mineral density, BV/TV bone volume as a fraction of total bone volume, Tb.Th trabecular thickness, Tb.N trabecular number, Tb.Sp trabecular separation. e Representative TRAP staining images of femurs from Fig. 7a. f Histomorphometry analysis of the femurs from Fig. 7a. Oc.S/BS osteoclast surface per bone surface, N.Oc/B.Pm osteoclast bone surface density, ES/BS eroded surface per bone surface. Data represent means ± SEM. P values were determined by one-way ANOVA analysis (b, d, f). Representative results were obtained from at least three independent experiments. Source data are provided as a Source Data file.
3D micro-CT analyses were performed as previously described. We scanned the femur using in vitro X-ray microtomography (Skyscan 1272, Bruker micro CT) at a pixel size of 9 µm, and analyzed the results according to the manufacturer’s instructions. Region-of-interest (ROI) was defined from 10 to 110 image slices, where the growth plate slice was defined as 0 mm. The contrast was defined from 68–255; 3D analysis, BMD, and 3D models were analyzed using CTAn software (Bruker micro CT). 3D models were adjusted in CT Vox software (Bruker micro CT).
Bone tissue was removed of excess tissues and fixed with 4% formalin, decalcified with 0.5 M EDTA for 10–14 days, embedded with paraffin, sectioned, and stained using the TRAP staining kit (Sigma-Aldrich, 387A-1KT). The third lumbar spine vertebrae (L3) were fixed with 4% formalin, sectioned, and subjected to Von Kossa staining as described previously[60],[61]. For double calcian labeling assay, 4−5 week-old mice were administrated calcian (30 μg/mL) through intraperitoneal injection for the first time and the second time after 10 days. The third lumbar spine vertebrae (L3) were fixed with 4% formalin, sectioned, and subjected to Goldner’s Masson trichrome staining, or acquisition of fluorescence images. Histomorphometric measurements were made using the OsteoMeasure Analysis System (Osteometrics, Atlanta, GA, USA) according to standard criteria.
For animal studies in vivo, mice were randomized for weight. For the OVX-induced bone loss model, 2-month-old female C57BL/6 mice were sham-operated (sham) or ovariectomized (OVX) and randomly divided into indicated groups. Vehicle, Kp-10 or (DSS)*6-Kp-10 was injected into the tail vein twice per week. After two months of treatment, the femurs and the L3 lumbrae were isolated for micro-CT or histomorphometric analysis. 3D micro-CT analyses were performed according to a standard protocol. BMD and bone volume were analyzed by CT-analysis software (CTAn, Bruker micro CT, Kontich, Belgium) and images were reconstituted by CT-volume software (CTvol, skyscan, CTAn, Bruker micro CT, Kontich, Belgium).
Supplementary Fig. 16 a Representative image of Von Kossa staining of sham-operated female C57 mice treated with vehicle (Sham, n=4), ovariectomized mice (OVX, n=3), and OVX mice treatment with 1 nmol/kg Kp-10 (n=6),10 nmol/kg Kp-10 (n=6),1 nmol/kg (DSS)*6-Kp-10 (n=5) or 10 nmol/kg (DSS)*6-Kp-10 (n=6) twice one week by intraperitoneal injection for two months. […]

Experiment [3] has as its system osteoblast differentiation. As to conditions: in vitro, KP-10 5 and 50 μM; ref 46 (Son et al.); cited from earlier work. An excerpt: Typically, GPCR activation with increasing of ligand concentration generates different signalings and phenotypes. […] Furthermore, we foun ...

Entries after “also recorded” stand apart in the source; their conditions may differ.

For Kisspeptin-10 [Kp-10], the osteoclast formation entry in experiment [1] (Arrb1 knockout BMMs) and in experiment [1] (Arrb2 knockout BMMs) was “still suppressed by Kp-10; also recorded: still blocked osteoclast formation” in each case. Further, the “osteoblast differentiation, low dose” value in experiment [2] (Kp-10 0.01 nM and 0.1 nM) is on record as “effectively suppressed osteoblast differentiation”. For the same substance, in experiment [2] (upon Kp-10 stimulation, ALP and von Kossa staining), the osteoblast differentiation result is recorded as “dose-dependently suppressed”. Moreover, the “bone loss / bone protection in vivo (summary statement)” value in the experiment with OVX mice is recorded as “abrogated bone loss by suppressing osteoclast activity in vivo”. In addition, in experiment [3], the “osteoblast differentiation at 5 and 50 μM” value was “stimulated osteoblast differentiation in vitro”.
